What was measured:
[1] = test system: HS-Apt-PEN (DNA, aptamer) CTGAATTGGATCTCTCTTCTTGAGCGATCTCCACA; test: LSPR on AuNPs, Langmuir fit; details: 137 mM NaCl, 2.7 mM KCl; PBS pH 7.4; flow; MCH and salmon sperm DNA passivation; immobilised aptamer
[2] = test system: HS-Apt-PEN (DNA, aptamer) CTGAATTGGATCTCTCTTCTTGAGCGATCTCCACA; test: QCM-D on gold electrode, Langmuir fit of 3rd harmonic frequency; details: 137 mM NaCl, 2.7 mM KCl; PBS pH 7.4; flow; immobilised aptamer; no clear plateau to 500 nM; some non-specific binding likely
[3] = test system: HS-Apt-OTC (DNA, aptamer) GGGGGCACACATGTAGGTGCTGTCCAGGTGTGGTTGTGGT; test: LSPR and QCM-D selectivity test; details: 137 mM NaCl, 2.7 mM KCl; PBS pH 7.4; 100 nM compound

Structure (SMILES)	KD [1] [nM]	KD [2] [nM]	binding [3]
CC1(C)S[C@@H]2[C@H](NC(=O)Cc3ccccc3)C(=O)N2[C@H]1C(=O)O	20	50	–
CN(C)[C@@H]1C(=O)C(C(N)=O)=C(O)[C@@]2(O)C(=O)C3=C(O)c4c(O)cccc4[C@@](C)(O)[C@H]3[C@H](O)[C@@H]12	–	–	yes
